Where “and” joins values, the source holds several entries; their conditions need not be identical. Equal entries are not always repeated.

The source of these data is paper PMC10119930, “Dual Molecules Targeting 5-HT6 and GABA-A Receptors as a New Approach to Combat Depression Associated with Neuroinflammation” (ACS Chemical Neuroscience, 2023).

The test system of data set [1] is human α1β2γ2-GABA-A receptors. Kind of data set: Electrophysiological studies, automated patch clamp (QPatch16X), HEK293 cells. It is filed as cell-based. The following applies: agonist mode, compound at 10 μM; current amplitude normalized to 10 μM GABA response; ±S.E.M.
Data set [2] is described as follows: Metabolic stability in rat liver microsomes. Format: in vitro ADME. The following applies: assayed at 10^–7 M. As to the method: The assay was performed by Eurofins Discovery, a contract research organization, according to standard methodology, described previously.[46]
In data set [3] the target is 5-HT6 receptor (Homo sapiens, UniProt P50406). Kind of data set: Functional assay for 5-HT6 receptor, antagonist mode (aequorin, CHO-K1 cells). Format: cell-based. Further details: expressed in transfected cells; host or cells: CHO-K1 (co-expressing mitochondrially targeted aequorin and G protein α16). The conditions noted are these: ±S.E.M., read-out: 5-HT6 R KB. As to the method:
The studies were acquired according to previous protocols.[41] All the examined compounds (novel and the reference) were dissolved in DMSO (1 mM) and diluted accordingly using the assay buffer, directly in 96-well microplate. The recombinant CHO-K1 cells expressing human GPCR, mitochondrially targeted aequorin, and the promiscuous G protein α16 specific for 5-HT6 were used for the functional assay. The cells were thawed and suspended in the appropriate buffer containing DMEM/HAM’s F12 with 0.1% protease free BSA and were then centrifuged. After adding coelenterazine h to a final concentration of 5 μM, the cell pellet was resuspended in the buffer. The cell suspension was incubated at 16 °C for 16 h while being protected from light, gently shaken, and diluted with assay buffer to a concentration of 5000 cells/mL. Following that, 50 μL of the cell suspension was introduced to preloaded white opaque 96-well microplates containing the tested molecules. This was done using the automatic injectors integrated into the radiometric and luminescence plate counter MicroBeta2 LumiJET (PerkinElmer, USA). The light emission resulting from calcium mobilization was monitored for a duration of 60 s. For examination of the antagonistic properties of tested molecule, following 30 min of incubation, the reference agonist was administrated and the light emission was detected.

Data set [4] deals with BV-2 microglia cells. Briefly: Evaluation of microglia morphology by fluorescence microscopy (MitoTracker) after LPS. It is filed as cell-based, mouse. The conditions noted are these: 10 μM pretreatment 1 h, LPS 18 h.
For data set [5], the target named is muscimol site of the GABA-A receptor. Briefly: Radioligand binding assay for GABA-A receptor ([3H]muscimol displacement, rat brain homogenate). The following applies: competitive replacement of [3H]muscimol; ±S.E.M. As to the method:
The study was acquired according to the earlier protocols.[39] The rats’ brains were homogenized and prepared accurately according to the previous protocol.[39] On the day of the study, brain homogenates were thawed at room temperature and “diluted” in 20 volumes of ice-cold 50 mM Tris-HCl buffer (pH 7.4) and centrifuged (20.000g, 30 min, 0–4 °C). The assay was performed directly on 96-well microplates, which contained 50 mM Tris-HCl buffer (pH 7.4) in a total volume of 300 μL. Reaction mix included 240 μL of the brain tissue suspension, 30 μL of [^3H]-muscimol, and 30 μL solution of tested compounds (administrated at various concentrations: 10^–10–10^–5 M). […] The 96-well microplates containing the reaction mix were incubated for 10 min at 0 °C, followed by rapid filtration over glass fiber filters FilterMate B (PerkinElmer, USA) using the Harvester-96 MACH III FM (Tomtec, USA). The filter mats were dried using a microwave and then placed inside a plastic bag (PerkinElmer, USA). After that, they were soaked in 10 mL of Ultima Gold MV liquid scintillation cocktail (PerkinElmer, USA). […] Ki values were estimated according to the Cheng and Prusoff equation. The study was performed in duplicates. The statistical analysis was performed using (GraphPad Prism, version 4.0, San Diego, CA, USA).

Sequence of 5-HT6 receptor (P50406 whole entry): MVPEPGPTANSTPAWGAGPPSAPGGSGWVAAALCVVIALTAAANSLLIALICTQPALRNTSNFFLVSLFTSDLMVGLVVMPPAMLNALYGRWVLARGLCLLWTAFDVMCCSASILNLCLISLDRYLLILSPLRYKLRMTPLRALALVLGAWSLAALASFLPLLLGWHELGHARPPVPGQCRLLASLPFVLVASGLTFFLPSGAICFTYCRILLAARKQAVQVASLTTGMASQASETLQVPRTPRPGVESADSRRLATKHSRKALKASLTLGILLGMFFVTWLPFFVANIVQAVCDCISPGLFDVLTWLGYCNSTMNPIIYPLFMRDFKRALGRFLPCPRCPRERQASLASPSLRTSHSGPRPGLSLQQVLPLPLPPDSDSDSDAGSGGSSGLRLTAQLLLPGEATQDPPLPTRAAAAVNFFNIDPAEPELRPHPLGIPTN

`Cc1c(OCc2ccccc2)cccc1N1CCN(CCOC(=O)CCCN)CC1.Cl.Cl` [Compound 16, 1-(2-((4-Ammoniobutanoyl)oxy)ethyl)-4-(3-(benzyloxy)-2-methylphenyl)piperazin-1-ium Dichloride]: the “[%] of 10 μM GABA activity” value in data set [1] was 24.7% and 24.7 ± 1.5%. Further, in data set [2], the “rat liver microsomes Clint” value is <115.5 (μL/min)/mg and the “rat liver microsomes t0,5” value is above 60 min. For the same compound, the Kb (in general, the equilibrium dissociation constant of an antagonist, usually derived from a functional assay) in data set [3] came out at 11.9 ± 0.1 nM. Also, the “mitochondrial membrane potential / morphology of microglia exposed to LPS” value in data set [4] was “protected the microglia from LPS insult”. For the same compound, the Ki – broadly, a dissociation constant, usually derived from enzyme kinetics or from competition with a known ligand – in data set [5] came to 147 ± 12.7 nM.
